Source: BindingDB's records for doi:10.1021/bi00098a028 (Arizona State University, 1991)

Biological target: T1, Purine nucleoside phosphorylase (Homo sapiens, UniProt P00491)
T1 sequence (P00491 whole entry): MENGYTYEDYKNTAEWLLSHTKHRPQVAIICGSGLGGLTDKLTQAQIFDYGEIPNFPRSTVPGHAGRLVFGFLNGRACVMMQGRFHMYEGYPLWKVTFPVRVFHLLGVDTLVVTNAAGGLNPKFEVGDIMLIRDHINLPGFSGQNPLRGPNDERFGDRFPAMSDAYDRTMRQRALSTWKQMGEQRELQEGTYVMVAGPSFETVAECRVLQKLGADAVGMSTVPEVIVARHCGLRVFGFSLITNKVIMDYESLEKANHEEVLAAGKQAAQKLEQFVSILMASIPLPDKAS
Assay: Competitive Inhibition Assay
Text: PNPase activity (guanosine to guanine and ribose 1-phosphate) was followed by measuring the decrease in absorbance at 268nm.

| Ki | Structure (SMILES) |
| --- | --- |
| 131 µM | Nc1ccc(O)c2c(=O)[nH]cnc12 [Substituted Quinazolin-4(3H)-one, 15] |
| 576 µM | O=c1[nH]cnc2cccc(O)c12 [Substituted Quinazolin-4(3H)-one, 13] |
| 142 µM | O=c1[nH]cnc2c(O)ccc(O)c12 [Substituted Quinazolin-4(3H)-one, 11] |
| 337 µM | Nc1cccc2nc[nH]c(=O)c12 [Substituted Quinazolin-4(3H)-one, 9] |
| 618 µM | Cc1cc(O)c2nc[nH]c(=O)c2c1 [Substituted Quinazolin-4(3H)-one, 12] |
| 593 µM | O=c1[nH]cnc2c(O)cccc12 [Substituted Quinazolin-4(3H)-one, 14] |
